In brackets after ≈: the same amount, converted by molar mass.

Data set [1] concerns Leishmania donovani. Nature of the data set: Antileishmanial activity against Leishmania donovani promastigotes assessed as parasite growth inhibition incubated for 72 hrs by Alamar blue assay. The format is functional, organism-based.
The subject of data set [2] is K562. Nature of the data set: Cytotoxicity against human K562 cells assessed as cell growth inhibition. Format: functional, cell-based.
Data set [3] concerns Plasmodium falciparum. Briefly: Antimalarial activity against chloroquine sensitive Plasmodium falciparum D6 assessed as parasite growth inhibition incubated for 72 hrs by Malstat reagent assay. Format: functional, organism-based. To be noted: D6, 72 h.
A short description of data set [4]: Cytotoxicity against African green monkey Vero cells assessed as cell growth inhibition incubated for 48 hrs by neutral red dye based assay. The format is toxicity. As to conditions: African green monkey (Chlorocebus sabaeus).
Data set [5] relates to Plasmodium falciparum. Nature of the data set: Antimalarial activity against chloroquine resistant Plasmodium falciparum W2 assessed as parasite growth inhibition incubated for 72 hrs by Malstat reagent assay. Format: functional, organism-based. As to conditions: W2, 72 h.
For data set [6], the system named is SF-268. Briefly: Cytotoxicity against human SF-268 cells assessed as cell growth inhibition. The format is functional, cell-based.
Data set [7] relates to L5178Y. Briefly: Cytotoxicity against mouse L5178Y cells assessed as cell growth inhibition. Format: functional, cell-based.
For data set [8], the system named is PC-3. Nature of the data set: Cytotoxicity against human PC-3 cells assessed as cell growth inhibition. Format: functional, cell-based.
Data set [9] relates to NCI-H460. Briefly: Cytotoxicity against human NCI-H460 cells assessed as cell growth inhibition. Format: functional, cell-based.
Data set [10] is described as follows: Cytotoxicity against human HeLa cells assessed as cell growth inhibition. As to conditions: read-out: ID50 (the source's name). The format is toxicity, cell-based.
Data set [11] has as its system MCF7. Nature of the data set: Cytotoxicity against human MCF7 cells assessed as cell growth inhibition. Format: functional, cell-based.
The test system of data set [12] is HepG2. Nature of the data set: Cytotoxicity against human HepG2 cells assessed as cell growth inhibition. The format is functional, cell-based.
Data set [13] relates to SGC-7901. Briefly: Cytotoxicity against human SGC-7901 cells assessed as cell growth inhibition. The format is functional, cell-based.
Data set [14] concerns Bel-7402. Briefly: Cytotoxicity against human Bel-7402 cells assessed as cell growth inhibition. The format is functional, cell-based.
Data set [15] has as its target Telomerase reverse transcriptase (Homo sapiens, UniProt O14746). Nature of the data set: Inhibition of human telomerase.

Telomerase reverse transcriptase, sequence (O14746 whole entry): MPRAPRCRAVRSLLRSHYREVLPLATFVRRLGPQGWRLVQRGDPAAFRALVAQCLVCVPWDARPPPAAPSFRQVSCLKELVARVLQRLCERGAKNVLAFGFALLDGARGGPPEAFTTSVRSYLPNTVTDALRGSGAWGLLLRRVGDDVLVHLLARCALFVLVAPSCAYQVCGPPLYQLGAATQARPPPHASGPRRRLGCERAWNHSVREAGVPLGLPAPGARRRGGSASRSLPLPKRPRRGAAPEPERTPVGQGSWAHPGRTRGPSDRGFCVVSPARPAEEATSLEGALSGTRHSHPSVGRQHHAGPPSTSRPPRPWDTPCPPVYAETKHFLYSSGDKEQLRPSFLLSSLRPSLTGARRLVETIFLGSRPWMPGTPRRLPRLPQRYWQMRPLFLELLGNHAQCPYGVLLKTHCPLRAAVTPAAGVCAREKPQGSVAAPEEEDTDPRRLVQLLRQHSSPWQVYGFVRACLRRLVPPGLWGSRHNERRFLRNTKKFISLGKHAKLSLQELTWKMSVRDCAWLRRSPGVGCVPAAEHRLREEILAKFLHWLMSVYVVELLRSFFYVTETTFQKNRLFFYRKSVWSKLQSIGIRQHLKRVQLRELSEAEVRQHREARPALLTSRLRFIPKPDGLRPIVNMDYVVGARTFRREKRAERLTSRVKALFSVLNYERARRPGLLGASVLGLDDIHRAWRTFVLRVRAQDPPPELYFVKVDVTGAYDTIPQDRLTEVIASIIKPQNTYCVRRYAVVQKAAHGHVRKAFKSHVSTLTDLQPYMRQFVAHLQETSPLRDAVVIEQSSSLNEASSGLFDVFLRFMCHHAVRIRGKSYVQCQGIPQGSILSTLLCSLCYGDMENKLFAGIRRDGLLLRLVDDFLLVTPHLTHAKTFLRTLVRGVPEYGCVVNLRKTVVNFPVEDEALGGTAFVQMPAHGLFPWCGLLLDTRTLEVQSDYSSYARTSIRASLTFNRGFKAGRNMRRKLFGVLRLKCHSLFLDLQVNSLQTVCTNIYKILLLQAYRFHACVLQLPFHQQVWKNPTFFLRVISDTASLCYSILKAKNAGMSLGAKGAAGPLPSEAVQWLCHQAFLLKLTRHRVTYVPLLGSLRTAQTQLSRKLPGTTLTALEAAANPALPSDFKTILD

As usually defined, the IC50 is the midpoint of a concentration-inhibition curve. Consider `O=C1C[C@@H](O)[C@]2(O)c3c(ccc(O)c31)-c1ccc(O)c3c1[C@@H]2[C@H]1O[C@@H]1[C@@H]3O`, for which the IC50 in [1] is 2.5 µg/mL (≈ 6.79 µM).

As for `O=C1C[C@H](O)[C@@H]2c3c(ccc(O)c31)-c1ccc(O)c3c1[C@@]2(O)[C@H](O)CC3=O`, the IC50 in data set [2] amounted to 53.5 µM.

As to `O=C1C[C@H](O)[C@H]2c3c(ccc(O)c31)-c1ccc(O)c3c1[C@@]2(O)[C@H](O)CC3=O`, the IC50 stood at 4.4 µg/mL (≈ 11.9 µM) in data set [1], 4.2 µg/mL (≈ 11.4 µM) in [3] and 3.6 µg/mL (≈ 9.77 µM) in data set [5]. Also, the IC50 at 48 h in data set [4] was 9.8 µM.

As to `O=C1CC[C@]2(O)c3c(ccc(O)c31)-c1ccc(O)c3c1[C@H]2[C@H]1O[C@H]1C3=O`, the IC50 in data set [6] is 1.9 µM; in [7], 6.2 µM; in [8], 14.3 µM; in data set [9], 1.9 µM; in [11], 1.9 µM; in data set [12], 1.9 µM. The GI50 in data set [10] was 0.5 µg/mL (≈ 1.43 µM).

`O=C1CCc2c3c4c(cc(O)cc4c4ccc(O)c1c24)[C@H](O)CC3`: the IC50 is 83.1 µM in data set [2], 27.5 µM in data set [13] and 40.9 µM in data set [14].

Consider `O=C1C[C@H](O)[C@@H]2c3c(ccc(O)c31)-c1ccc(O)c3c1[C@@]2(O)CCC3=O` [ALTERTOXIN I], for which the GI50 in data set [10] came out at 20 µg/mL (≈ 56.8 µM).

Turning to `O=C1C[C@H](O)[C@@H]2c3c(ccc(O)c31)-c1ccc(O)c3c1[C@@]2(O)C=CC3=O`, the IC50 in [6] is 1.9 µM; in [9], 1.9 µM; in [15], 30 µM; in data set [11] it was 1.9 µM; in [12], 1.9 µM.

Turning to `O=C1CC[C@]2(O)c3c(ccc(O)c31)-c1ccc(O)c3c1[C@H]2[C@H]1O[C@H]1[C@@H]3O`, in data set [1], the half-maximal inhibitory concentration (IC50) is 3.1 µg/mL (≈ 8.8 µM).

With `CO[C@H]1CC(=O)c2c(O)ccc3c2[C@@]1(O)[C@@H]1c2c-3ccc(O)c2[C@@H](O)[C@@H]2O[C@@H]21`, the figures for the IC50 in data set [1], in data set [3] and in data set [5] were 1.4 µg/mL (≈ 3.66 µM), 3.2 µg/mL (≈ 8.37 µM) and 2.5 µg/mL (≈ 6.54 µM), respectively. For the same compound, in [4], the 50% inhibitory concentration (IC50) at 48 h came out at 12.5 µM.

These data come from ChEMBL document CHEMBL5126634, “Naturally Occurring Partially Reduced Perylenequinones from Fungi” (J Nat Prod, 2022).
